# Laboratory results taken from ChEMBL document CHEMBL3137667, “[Drug-induced liver injury; fourteenth updated edition of the bibliographic database of liver injuries and related drugs]” (Gastroenterol Clin Biol, 2004).
# Assays:
# [1] = Highest frequency of moderate liver toxicity observed during clinical trials, expressed as a percentage. [column '% BIOL' in source]; conditions: human
# [2] = human
# [3] = human; remark: listed apart in the source
# [4] = human; remark: listed apart in the source
# [5] = human, serum, 4383 h
# [6] = human; remark: listed apart in the source
# [7] = human; remark: listed apart in the source
# [8] = human, serum
# [9] = human; remark: listed apart in the source
# [10] = Highest frequency of acute liver toxicity observed during clinical trials, expressed as a percentage. [column '% AIGUE' in source]; conditions: human
# [11] = human; remark: listed apart in the source
# [12] = human; remark: listed apart in the source
# [13] = human; remark: listed apart in the source
# [14] = human, serum; remark: listed apart in the source
# 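Throughout, for Hepatotoxicity (association with vascular disease): count of indexed literature references reporting vascular liver injury in humans, e.g. peliosis hepatitis, hepatic veno-occlusive disease or Budd-Chiari syndrome.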
# 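Throughout, for Hepatotoxicity (benign tumour): value is a count of indexed literature references citing a benign tumour confirmed by histopathology.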
# 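Throughout, for Hepatotoxicity (choleostasis): human cholestatic liver injury, shown by histopathology or by peak ALT or AST elevation over alkaline phosphatase ratio below 2, value counts indexed literature reports.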
# 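Throughout, for Hepatotoxicity (chronic liver disease): chronic liver injury confirmed by histopathology or persistently raised serum aminotransferase activity beyond 6 months, value given as the count of indexed literature references.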
# 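Throughout, for Hepatotoxicity (cirrhosis): value is a count of indexed literature references reporting cirrhosis confirmed by histopathology.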
# 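Throughout, for Hepatotoxicity (cytolytic): human cytolytic liver injury, shown by histopathology or by a ratio above 5 of peak ALT or AST elevation to alkaline phosphatase elevation, value counts indexed references.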
# 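Throughout, for Hepatotoxicity (granulomatous hepatitis): value is a count of indexed literature references reporting granulomatous liver disease confirmed by histopathology.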
# 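Throughout, for Hepatotoxicity (malignant tumour): malignant tumour confirmed by histopathology, value gives the count of indexed literature references reporting it.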
# 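Throughout, for Hepatotoxicity (severe hepatitis): human clinical data: severe hepatitis, meaning potentially life-threatening liver failure or clinically observed cases, the value counts how many indexed literature references report it.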
# 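Throughout, for Hepatotoxicity (steatosis): steatosis confirmed by histopathology, value is the count of indexed references.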
SMILES,Hepatotoxicity (moderate) [1] [%],Hepatotoxicity (choleostasis) [2],Hepatotoxicity (benign tumour) [3],Hepatotoxicity (association with vascular disease) [4],Hepatotoxicity (chronic liver disease) [5],Hepatotoxicity (severe hepatitis) [6],Hepatotoxicity (steatosis) [7],Hepatotoxicity (acute) [8],Hepatotoxicity (cirrhosis) [9],Hepatotoxicity (acute) [10] [%],Hepatotoxicity (granulomatous hepatitis) [11],Hepatotoxicity (malignant tumour) [12],Hepatotoxicity (cytolytic) [13],Hepatotoxicity (moderate) [14],Hepatotoxicity (moderate) ([1]; Liver) [%],Hepatotoxicity (severe hepatitis) ([6]; Liver),Hepatotoxicity (acute) ([10]; Liver) [%]
CCN1CCC[C@H]1CNC(=O)c1c(OC)ccc(Br)c1OC [REMOXIPRIDE],6.4,0,0,0,0,0,0,0,0,0,0,0,0,7,,,
CCOc1cc(CC(=O)N[C@@H](CC(C)C)c2ccccc2N2CCCCC2)ccc1C(=O)O [REPAGLINIDE],,0,0,0,0,,0,0,0,,0,0,0,1,1.5,0,0
CO[C@@H](/C(C)=C/C=C/C(C)=C/c1coc(C)n1)[C@@H](C)[C@@H]1C[C@H](O)[C@@]2(C)O[C@@H]2/C=C/[C@@H](C)[C@H]2C[C@H](CC(=O)O2)C[C@@H]2O[C@H]2C(=O)O1 [RHIZOXIN],7.3,0,0,0,0,0,0,0,0,0,0,0,0,1,,,
CO[C@H]1/C=C/O[C@@]2(C)Oc3c(C)c(O)c4c(O)c(c5c(nc6cc(C)ccn65)c4c3C2=O)NC(=O)/C(C)=C\C=C\[C@H](C)[C@H](O)[C@@H](C)[C@@H](O)[C@@H](C)[C@H](OC(C)=O)[C@@H]1C [RIFAXIMIN],26.7,0,0,0,0,0,0,0,0,0,0,0,0,27,,,
CC(N)C12CC3CC(CC(C3)C1)C2 (centres undefined) [RIMANTADINE],1.8,0,0,0,0,0,0,0,0,0,0,0,0,1,,,
CCCCC(C)(O)C/C=C/[C@H]1[C@H](O)CC(=O)[C@@H]1CCCCCCCO (some centres undefined) [RIOPROSTIL],10,0,0,0,0,0,0,0,0,0,0,0,0,1,,,
CCCC(=O)O[C@H]1[C@H](C)O[C@@H](O[C@H]2[C@H](N(C)C)[C@@H](O)[C@H](O[C@H]3[C@@H](CC=O)C[C@@H](C)[C@@H](O)/C=C/C=C/C[C@@H](C)OC(=O)C[C@@H](O)[C@@H]3OC)O[C@@H]2C)C[C@@]1(C)OC(=O)CC [ROKITAMYCIN],5,0,0,0,0,0,0,0,0,0,0,0,0,4,,,
CC(C)c1nc(N(C)S(C)(=O)=O)nc(-c2ccc(F)cc2)c1/C=C/[C@@H](O)C[C@@H](O)CC(=O)O [ROSUVASTATIN],0,0,0,0,0,0,0,1,0,0.1,0,0,1,0,,,
Oc1ccc2[nH]cc(CCCCN3CC=C(c4ccccc4)CC3)c2c1 [ROXINDOLE],10,0,0,0,0,0,0,0,0,0,0,0,0,1,,,
OCc1cc(C(O)CNCCCCCCOCCCCc2ccccc2)ccc1O (centres undefined) [SALMETEROL],1.8,0,0,0,0,0,0,0,0,0,0,0,0,1,,,
O=C1NCCN1CCN1CCC(c2cn(-c3ccc(F)cc3)c3ccc(Cl)cc23)CC1 [SERTINDOLE],1.4,0,0,0,0,0,0,0,0,0,0,0,0,1,,,
